Patent US8952157B2, “Apoptosis-inducing agents for the treatment of cancer and immune and autoimmune diseases” (AbbVie Inc., priority 2008, dated 2015)
pKi: −log10 of the molar value.

Molecular target: GST-Bcl-2 (Homo sapiens (Human), UniProt P10415)
Assay: Time Resolved-Fluorescence Resonance Energy Transfer (TR-FRET) Bcl-2 binding assay
Settings: not given
In short: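 Ki values derived from TR-FRET displacement of F-Bak peptide from GST-Bcl-2, detected with Tb-labelled anti-GST antibody (ex 340, em 520/495 nm). Compound dilution series started at 50 μM (2× starting concentration); room-temperature incubation 3 hours.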

Sequence of GST-Bcl-2 (P10415 whole entry): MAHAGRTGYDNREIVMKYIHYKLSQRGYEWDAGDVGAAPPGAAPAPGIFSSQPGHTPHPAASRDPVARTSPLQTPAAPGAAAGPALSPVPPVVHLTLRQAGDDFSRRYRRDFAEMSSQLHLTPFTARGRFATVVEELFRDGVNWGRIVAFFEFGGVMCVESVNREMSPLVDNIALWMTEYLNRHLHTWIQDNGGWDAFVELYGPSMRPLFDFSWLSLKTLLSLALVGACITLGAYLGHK

`CC1(C)CCC(CN2CCN(c3ccc(C(=O)NS(=O)(=O)c4ccc(NC[C@H]5CC[C@H](O)CC5)c([N+](=O)[O-])c4)c(Oc4cc5cc[nH]c5cc4F)c3)CC2)=C(c2ccc(Cl)cc2)C1` [Example 338, Trans-4-(4-{[2-(4-chlorophenyl)-4,4-dimethylcyclohex-1-en-1-yl]methyl}piperazin-1-yl)-2-[(6-fluoro-1H-indol-5-yl)oxy]-N-[(4-{[(4-hydroxycyclohexyl)methyl]amino}-3-nitrophenyl)sulfonyl]benzamide] was tested, and the pKi was > 11.00.

Same assay, conditions: GST-Bcl-2 1 nM, F-Bak peptide probe 100 nM, Tb-anti-GST antibody 1 nM; Ki by Wang's equation

Point of comparison: `CNC(=O)c1cccc(Oc2cc(N3CCN(Cc4ccccc4-c4ccc(Cl)cc4)CC3)ccc2C(=O)NS(=O)(=O)c2ccc(NCCCN(C)C)c([N+](=O)[O-])c2)c1` [Example 104, 4-(4-((4′-chlorobiphenyl-2-yl)methyl)piperazin-1-yl)-N-(4-(3-(dimethylamino)propylamino)-3-nitrophenylsulfonyl)-2-(3-(methylcarbamoyl)phenoxy)benzamide], pKi 8.63. Against it:
- CN1CCN(Nc2ccc(S(=O)(=O)NC(=O)c3ccc(N4CCN(CC5=C(c6ccc(Cl)cc6)CC(C)(C)OC5)CC4)cc3Oc3cc4cc[nH]c4cc3F)cc2[N+](=O)[O-])CC1 [Example 316, 4-(4-{[4-(4-chlorophenyl)-6,6-dimethyl-5,6-dihydro-2H-pyran-3-yl]methyl}piperazin-1-yl)-2-[(6-fluoro-1H-indol-5-yl)oxy]-N-({4-[(4-methylpiperazin-1-yl)amino]-3-nitrophenyl}sulfonyl)benzamide] — 1.61 log units higher, 10.24
- CN(C)CCCNc1ccc(S(=O)(=O)NC(=O)c2ccc(N3CCN(Cc4ccccc4-c4ccc(Cl)cc4)CC3)cc2Oc2ccc(Cl)cc2)cc1[N+](=O)[O-] [Example 15, 4-(4-((4′-chloro-1,1′-biphenyl-2-yl)methyl)piperazin-1-yl)-2-(4-chlorophenoxy)-N-((4-((3-(dimethylamino)propyl)amino)-3-nitrophenyl)sulfonyl)benzamide] — 0.60 log units higher, 9.23
- CC1(C)CCC(CN2CCN(c3ccc(C(=O)NS(=O)(=O)c4cnc(OCC5(F)CCN(C(CF)CF)CC5)c(C(F)(F)F)c4)c(Oc4cnc(N)c(Cl)c4)c3)CC2)=C(c2ccc(Cl)cc2)C1 [Example 405, 2-[(6-amino-5-chloropyridin-3-yl)oxy]-4-(4-{[2-(4-chlorophenyl)-4,4-dimethylcyclohex-1-en-1-yl]methyl}piperazin-1-yl)-N-{[6-({4-fluoro-1-[2-fluoro-1-(fluoromethyl)ethyl]piperidin-4-yl}methoxy)-5-(trifluoromethyl)pyridin-3-yl]sulfonyl}benzamide] — 0.82 log units higher, 9.45
- O=C(NS(=O)(=O)c1ccc(NCCCN2CCOCC2)c([N+](=O)[O-])c1)c1ccc(N2CCN(Cc3ccccc3-c3ccc(Cl)cc3)CC2)cc1Oc1ccc(-c2ccncc2)cc1 [Example 99, 4-(4-((4′-chloro-1,1′-biphenyl-2-yl)methyl)piperazin-1-yl)-N-((4-((3-morpholin-4-ylpropyl)amino)-3-nitrophenyl)sulfonyl)-2-(4-pyridin-4-ylphenoxy)benzamide] — 1.48 log units lower, 7.15
- CC1(C)CCC(CN2CCN(c3ccc(C(=O)NS(=O)(=O)c4ccc(NCC5CCOCC5)c([N+](=O)[O-])c4)c(Oc4cccc(Cl)c4)c3)CC2)=C(c2ccc(Cl)cc2)C1 [Example 246, 2-(3-chlorophenoxy)-4-(4-{[2-(4-chlorophenyl)-4,4-dimethylcyclohex-1-en-1-yl]methyl}piperazin-1-yl)-N-({3-nitro-4-[(tetrahydro-2H-pyran-4-ylmethyl)amino]phenyl}sulfonyl)benzamide] — 1.56 log units higher, 10.19
- CCN(CC)C1CCC(Nc2ccc(S(=O)(=O)NC(=O)c3ccc(N4CCN(CC5=C(c6ccc(Cl)cc6)CC(C)(C)CC5)CC4)cc3Oc3cccc(Cl)c3)cc2[N+](=O)[O-])CC1 (centres unmarked) [Example 204, 2-(3-chlorophenoxy)-4-(4-{[2-(4-chlorophenyl)-4,4-dimethylcyclohex-1-en-1-yl]methyl}piperazin-1-yl)-N-[(4-{[4-(diethylamino)cyclohexyl]amino}-3-nitrophenyl)sulfonyl]benzamide] — 1.49 log units higher, 10.12
- CC1(C)CCC(CN2CCN(c3ccc(C(=O)NS(=O)(=O)c4ccc(NC5CCN(C6CCOCC6)CC5)c([N+](=O)[O-])c4)c(Oc4cc5cc[nH]c5cc4Cl)c3)CC2)=C(c2ccc(Cl)cc2)C1 [Example 242, 2-[(6-chloro-1H-indol-5-yl)oxy]-4-(4-{[2-(4-chlorophenyl)-4,4-dimethylcyclohex-1-en-1-yl]methyl}piperazin-1-yl)-N-({3-nitro-4-[(1-tetrahydro-2H-pyran-4-ylpiperidin-4-yl)amino]phenyl}sulfonyl)benzamide] — 1.41 log units higher, 10.04
- CC1(C)CCC(CN2CCN(c3ccc(C(=O)NS(=O)(=O)c4ccc(NC5CCN(C6CCCC6)CC5)c([N+](=O)[O-])c4)c(Oc4cccc(Cl)c4)c3)CC2)=C(c2ccc(Cl)cc2)C1 [Example 130, 2-(3-chlorophenoxy)-4-(4-{[2-(4-chlorophenyl)-4,4-dimethylcyclohex-1-en-1-yl]methyl}piperazin-1-yl)-N-({4-[(1-cyclopentylpiperidin-4-yl)amino]-3-nitrophenyl}sulfonyl)benzamide] — 1.54 log units higher, 10.17
- CN(C)c1cccc(Oc2cc(N3CCN(Cc4ccccc4-c4ccc(Cl)cc4)CC3)ccc2C(=O)NS(=O)(=O)c2ccc(NCC3CCOCC3)c([N+](=O)[O-])c2)c1 [Example 21, 4-(4-((4′-chloro-1,1′-biphenyl-2-yl)methyl)piperazin-1-yl)-2-(3-(dimethylamino)phenoxy)-N-((3-nitro-4-((tetrahydro-2H-pyran-4-ylmethyl)amino)phenyl)sulfonyl)benzamide] — 0.78 log units lower, 7.85
- CC1(C)CCC(CN2CCN(c3ccc(C(=O)NS(=O)(=O)c4ccc(NCCCN5CCOCC5)c(S(=O)(=O)C(F)(F)F)c4)c(Oc4cnc(N)c(Cl)c4)c3)CC2)=C(c2ccc(Cl)cc2)C1 [Example 347, 2-[(6-amino-5-chloropyridin-3-yl)oxy]-4-(4-{[2-(4-chlorophenyl)-4,4-dimethylcyclohex-1-en-1-yl]methyl}piperazin-1-yl)-N-({4-[(3-morpholin-4-ylpropyl)amino]-3-[(trifluoromethyl)sulfonyl]phenyl}sulfonyl)benzamide] — 0.79 log units higher, 9.42
- CN1CCC(Nc2ccc(S(=O)(=O)NC(=O)c3ccc(N4CCN(CC5=C(c6ccc(Cl)cc6)CC(C)(C)CC5)CC4)cc3Nc3ccccc3Cl)cc2[N+](=O)[O-])CC1 [Example 230, 2-[(2-chlorophenyl)amino]-4-(4-{[2-(4-chlorophenyl)-4,4-dimethylcyclohex-1-en-1-yl]methyl}piperazin-1-yl)-N-({4-[(1-methylpiperidin-4-yl)amino]-3-nitrophenyl}sulfonyl)benzamide] — within 0.2 log units, 8.55
- O=C(NS(=O)(=O)c1ccc(NCC2CCOCC2)c([N+](=O)[O-])c1)c1ccc(N2CCN(Cc3ccccc3-c3ccc(Cl)cc3)CC2)cc1Oc1ccccc1Cl [Example 5, 4-(4-((4′-chloro-1,1′-biphenyl-2-yl)methyl)piperazin-1-yl)-2-(2-chlorophenoxy)-N-((3-nitro-4-((tetrahydro-2H-pyran-4-ylmethyl)amino)phenyl)sulfonyl)benzamide] — 0.50 log units higher, 9.13
- CC1(C)CCC(CN2CCN(c3ccc(C(=O)NS(=O)(=O)c4ccc(NCC5(F)CCOCC5)c([N+](=O)[O-])c4)c(Oc4cnc(N)c(Cl)c4)c3)CC2)=C(c2ccc(Cl)cc2)C1 [Example 363, 2-[(6-amino-5-chloropyridin-3-yl)oxy]-4-(4-{[2-(4-chlorophenyl)-4,4-dimethylcyclohex-1-en-1-yl]methyl}piperazin-1-yl)-N-[(4-{[(4-fluorotetrahydro-2H-pyran-4-yl)methyl]amino}-3-nitrophenyl)sulfonyl]benzamide] — higher, > 11.00
- CN(C)C(=O)c1ccccc1Oc1cc(N2CCN(Cc3ccccc3-c3ccc(Cl)cc3)CC2)ccc1C(=O)NS(=O)(=O)c1ccc(NCC2CCOCC2)c([N+](=O)[O-])c1 [Example 30, 2-(5-(4-((4′-chlorobiphenyl-2-yl)methyl)piperazin-1-yl)-2-(3-nitro-4-((tetrahydro-2H-pyran-4-yl)methylamino)phenylsulfonylcarbamoyl)phenoxy)-N,N-dimethylbenzamide] — 1.52 log units higher, 10.15
- CN1CCC(Nc2ccc(S(=O)(=O)NC(=O)c3ccc(N4CCN(CC5=C(c6ccc(Cl)cc6)CC(C)(C)CC5)CC4)cc3Oc3ccc(Cl)c(Cl)c3)cc2[N+](=O)[O-])CC1 [Example 164, 4-(4-{[2-(4-chlorophenyl)-4,4-dimethylcyclohex-1-en-1-yl]methyl}piperazin-1-yl)-2-(3,4-dichlorophenoxy)-N-({4-[(1-methylpiperidin-4-yl)amino]-3-nitrophenyl}sulfonyl)benzamide] — 1.62 log units higher, 10.25
- CN1CCC(Nc2ccc(S(=O)(=O)NC(=O)c3ccc(N4CCN(CC5=C(c6ccc(Cl)cc6)CC(C)(C)OC5)CC4)cc3Oc3cccc(F)c3F)cc2[N+](=O)[O-])CC1 [Example 145, 4-(4-{[4-(4-chlorophenyl)-6,6-dimethyl-5,6-dihydro-2H-pyran-3-yl]methyl}piperazin-1-yl)-2-(2,3-difluorophenoxy)-N-({4-[(1-methylpiperidin-4-yl)amino]-3-nitrophenyl}sulfonyl)benzamide] — 1.61 log units higher, 10.24
- CC1(C)CCC(CN2CCN(c3ccc(C(=O)NS(=O)(=O)c4ccc(NCCN5CCOCC5)c([N+](=O)[O-])c4)c(Oc4cccc(Cl)c4)c3)CC2)=C(c2ccc(Cl)cc2)C1 [Example 141, 2-(3-chlorophenoxy)-4-(4-{[2-(4-chlorophenyl)-4,4-dimethylcyclohex-1-en-1-yl]methyl}piperazin-1-yl)-N-({4-[(2-morpholin-4-ylethyl)amino]-3-nitrophenyl}sulfonyl)benzamide] — 0.69 log units higher, 9.32
- CC1(C)CCC(CN2CCN(c3ccc(C(=O)NS(=O)(=O)c4ccc(OCC5(F)CCOCC5)c(S(=O)(=O)C(F)(F)F)c4)c(Oc4cnc(N)c(Cl)c4)c3)CC2)=C(c2ccc(Cl)cc2)C1 [Example 348, 2-[(6-amino-5-chloropyridin-3-yl)oxy]-4-(4-{[2-(4-chlorophenyl)-4,4-dimethylcyclohex-1-en-1-yl]methyl}piperazin-1-yl)-N-({4-[(4-fluorotetrahydro-2H-pyran-4-yl)methoxy]-3-[(trifluoromethyl)sulfonyl]phenyl}sulfonyl)benzamide] — 0.21 log units lower, 8.42
